Measured values published in patent US11192891B2, “Diazaspiro ROCK inhibitors” (BRISTOL-MYERS SQUIBB COMPANY, priority 2017, dated 2021).
pIC50: −log10 of the molar value.

Target: ROCK2 (Homo sapiens, UniProt O75116)
Test: ROCK kinase inhibition assay, FITC peptide substrate, LABCHIP 3000 readout
Assay type: biochemical
Settings: 5 μM ATP, 1.5 μM peptide substrate
Description: Compounds were dissolved in DMSO so that the final concentration of DMSO was <2%, and the reaction was initiated with Rho kinase variants. After incubation, the reaction was terminated by the addition of EDTA and the phosphorylated and non-phosphorylated peptides separated using a LABCHIP® 3000 Reader (Caliper Life Sciences). […] Compounds were tested in dose-response format, and the inhibition of kinase activity was calculated at each concentration of compound.

Chain of ROCK2 (O75116 whole entry, species assumed): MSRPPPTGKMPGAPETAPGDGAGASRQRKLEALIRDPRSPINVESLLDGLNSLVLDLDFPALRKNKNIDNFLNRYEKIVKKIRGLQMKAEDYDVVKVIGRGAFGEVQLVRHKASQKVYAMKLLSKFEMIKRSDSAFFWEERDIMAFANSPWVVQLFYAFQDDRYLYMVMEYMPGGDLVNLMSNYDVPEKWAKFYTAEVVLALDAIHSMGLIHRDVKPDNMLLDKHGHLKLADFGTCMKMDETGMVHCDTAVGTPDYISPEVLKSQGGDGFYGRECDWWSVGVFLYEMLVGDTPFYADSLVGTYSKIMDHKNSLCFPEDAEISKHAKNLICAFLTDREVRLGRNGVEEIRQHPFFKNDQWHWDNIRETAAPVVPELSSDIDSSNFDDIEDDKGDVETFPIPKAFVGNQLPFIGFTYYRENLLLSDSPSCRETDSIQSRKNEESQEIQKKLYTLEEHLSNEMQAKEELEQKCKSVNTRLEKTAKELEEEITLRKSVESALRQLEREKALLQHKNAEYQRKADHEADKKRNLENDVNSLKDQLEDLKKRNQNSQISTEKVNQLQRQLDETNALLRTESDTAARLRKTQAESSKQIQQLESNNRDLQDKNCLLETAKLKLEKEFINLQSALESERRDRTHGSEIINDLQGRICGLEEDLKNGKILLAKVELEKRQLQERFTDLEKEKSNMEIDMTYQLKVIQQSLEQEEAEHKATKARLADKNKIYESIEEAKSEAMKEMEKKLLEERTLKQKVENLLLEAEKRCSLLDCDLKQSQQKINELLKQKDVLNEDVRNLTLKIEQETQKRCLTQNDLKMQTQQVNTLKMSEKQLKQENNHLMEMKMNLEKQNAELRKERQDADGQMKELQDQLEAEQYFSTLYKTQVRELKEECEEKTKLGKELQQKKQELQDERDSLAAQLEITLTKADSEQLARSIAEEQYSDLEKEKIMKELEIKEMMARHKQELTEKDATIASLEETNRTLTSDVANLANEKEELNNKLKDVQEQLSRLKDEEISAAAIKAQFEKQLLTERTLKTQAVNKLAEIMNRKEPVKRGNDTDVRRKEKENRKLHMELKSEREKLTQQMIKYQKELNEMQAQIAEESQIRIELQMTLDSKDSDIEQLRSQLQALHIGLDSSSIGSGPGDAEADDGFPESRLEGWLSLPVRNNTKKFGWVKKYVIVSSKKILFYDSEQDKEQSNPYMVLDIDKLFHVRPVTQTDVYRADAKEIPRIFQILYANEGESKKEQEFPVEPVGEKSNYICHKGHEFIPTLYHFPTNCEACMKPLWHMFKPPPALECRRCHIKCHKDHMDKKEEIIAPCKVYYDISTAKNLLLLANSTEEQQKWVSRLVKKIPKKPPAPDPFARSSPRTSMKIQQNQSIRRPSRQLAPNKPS

pIC50 | SMILES
7.54 | COc1ccc(C(=O)N2CCC3(CC2)CCN(c2ccc(-c4cn[nH]c4)c(OC)c2)C3=O)c(OC)c1 [Example 174, 8-(2,4-dimethoxybenzoyl)-2-[3-methoxy-4-(1H-pyrazol-4-yl)phenyl]-2,8-diazaspiro[4.5]decan-1-one]
8.64 | COc1cc(N2CCC3(CCN(C(=O)c4ccc5c(c4)nc(C)n5C)CC3)C2=O)ccc1-c1cn[nH]c1 [Example 179, 8-(1,2-dimethyl-1H-1,3-benzodiazole-5-carbonyl)-2-[3-methoxy-4-(1H-pyrazol-4-yl)phenyl]-2,8-diazaspiro[4.5]decan-1-one]
6.58 | COc1cccc(S(=O)(=O)N2CCC3(CCN(c4ccc(-c5cn[nH]c5)c(OC)c4)C3=O)CC2)c1 [Example 207, 2-[3-methoxy-4-(1H-pyrazol-4-yl)phenyl]-8-(3-methoxybenzenesulfonyl)-2,8-diazaspiro[4.5]decan-1-one]
9.70 | COc1cc(N2CCC3(CCN(C(=O)c4ccc(N5CCN(C(C)C)CC5)cc4)CC3)C2=O)ccc1-c1cn[nH]c1 [Example 233, 2-[3-methoxy-4-(1H-pyrazol-4-yl)phenyl]-8-{4-[4-(propan-2-yl)piperazin-1-yl]benzoyl}-2,8-diazaspiro[4.5]decan-1-one]
9.40 | COc1cc(N2CCC3(CCN(C(=O)c4ccc(N5CCN(CCOCc6ccccc6)CC5)cc4)CC3)C2=O)ccc1-c1cn[nH]c1 [Example 221, 8-(4-{4-[2-(benzyloxy)ethyl]piperazin-1-yl}benzoyl)-2-[3-methoxy-4-(1H-pyrazol-4-yl)phenyl]-2,8-diazaspiro[4.5]decan-1-one]
8.96 | COc1cc(N2CCC3(CCN(C(=O)c4ccc(N5CCN(Cc6ccccc6Cl)CC5)cc4)CC3)C2=O)ccc1-c1cn[nH]c1 [Example 223, 8-(4-{4-[(2-chlorophenyl)methyl]piperazin-1-yl}benzoyl)-2-[3-methoxy-4-(1H-pyrazol-4-yl)phenyl]-2,8-diazaspiro[4.5]decan-1-one]
7.70 | COc1ccc2cc(C(=O)N3CCC4(CC3)CCN(c3ccc(-c5cn[nH]c5)c(OC)c3)C4=O)ccc2c1 [Example 176, 2-[3-methoxy-4-(1H-pyrazol-4-yl)phenyl]-8-(6-methoxynaphthalene-2-carbonyl)-2,8-diazaspiro[4.5]decan-1-one]

The next lines start with the compound.

SMILES | pIC50
COc1ccc(-c2cc(C(=O)N3CCC4(CC3)CCN(c3ccc(-c5cn[nH]c5)c(OC)c3)C4=O)on2)cc1 [Example 113, 2-[3-methoxy-4-(1H-pyrazol-4-yl)phenyl]-8-[3-(4-methoxyphenyl)-1,2-oxazole-5-carbonyl]-2,8-diazaspiro[4.5]decan-1-one] | 7.77
COc1ccccc1C(=O)N1CCC2(CC1)CCN(c1ccc(-c3cn[nH]c3)c(OC)c1)C2=O [Example 12, 2-[3-methoxy-4-(1H-pyrazol-4-yl)phenyl]-8-(2-methoxybenzoyl)-2,8-diazaspiro[4.5]decan-1-one] | 7.27
COC(=O)c1ccc(C(=O)N2CCC3(CC2)CCN(c2ccc(-c4cn[nH]c4)c(OC)c2)C3=O)cc1 [Example 24, methyl 4-{2-[3-methoxy-4-(1H-pyrazol-4-yl)phenyl]-1-oxo-2,8-diazaspiro[4.5]decane-8-carbonyl}benzoate] | 7.64
COc1cc(-c2cn[nH]c2)ccc1C(=O)N1CCC2(CC1)CCN(c1ccc(-c3cn[nH]c3)c(OC)c1)C2=O [Example 159, 8-[2-methoxy-4-(1H-pyrazol-4-yl)benzoyl]-2-[3-methoxy-4-(1H-pyrazol-4-yl)phenyl]-2,8-diazaspiro[4.5]decan-1-one] | 7.54
CN1CCN(c2ccc(C(=O)N3CCC4(CC3)CCN(c3ccc(-c5ccc6nn[nH]c6c5)cc3)C4=O)cc2)CC1 [Example 38, 2-[4-(1H-1,2,3-benzotriazol-6-yl)phenyl]-8-[4-(4-methylpiperazin-1-yl)benzoyl]-2,8-diazaspiro[4.5]decan-1-one] | 6.94
COc1cc(N2CCC3(CCN(C(=O)c4cc(Cl)no4)CC3)C2=O)ccc1-c1cn[nH]c1 [Example 109, 8-(3-chloro-1,2-oxazole-5-carbonyl)-2-[3-methoxy-4-(1H-pyrazol-4-yl)phenyl]-2,8-diazaspiro[4.5]decan-1-one] | 6.44
O=C1N(c2ccc(-c3cn[nH]c3)cc2)CCC12CCN(S(=O)(=O)c1ccccc1)C2 (stereo not drawn) [Example 46, 7-(benzenesulfonyl)-2-[4-(1H-pyrazol-4-yl)phenyl]-2,7-diazaspiro[4.4]nonan-1-one] | 6.12
O=C(c1ccc(OC(F)(F)F)cc1)N1CCC2(CC1)CCN(c1ccc(-c3cn[nH]c3)cc1)C2=O [Example 10, 2-[4-(1H-pyrazol-4-yl)phenyl]-8-[4-(trifluoromethoxy)benzoyl]-2,8-diazaspiro[4.5]decan-1-one] | 7.02
COc1cc(N2CCC3(CCN(C(=O)c4cc[n+]([O-])cc4)CC3)C2=O)ccc1-c1cn[nH]c1 [Example 96, 4-{2-[3-methoxy-4-(1H-pyrazol-4-yl)phenyl]-1-oxo-2,8-diazaspiro[4.5]decane-8-carbonyl}pyridin-1-ium-1-olate] | 5.96
COc1cc(N2CCC3(CCN(C(=O)c4ccc5c(ccn5C)c4)CC3)C2=O)ccc1-c1cn[nH]c1 [Example 153, 2-[3-methoxy-4-(1H-pyrazol-4-yl)phenyl]-8-(1-methyl-1H-indole-5-carbonyl)-2,8-diazaspiro[4.5]decan-1-one] | 8.35
COc1cc(N2CCC3(CCN(C(=O)c4ccoc4)CC3)C2=O)ccc1-c1cn[nH]c1 [Example 65, 8-(furan-3-carbonyl)-2-[3-methoxy-4-(1H-pyrazol-4-yl)phenyl]-2,8-diazaspiro[4.5]decan-1-one] | 6.12
COc1cc(N2CCC3(CCN(C(=O)c4ccc5cnccc5c4)CC3)C2=O)ccc1-c1cn[nH]c1 [Example 166, 8-(isoquinoline-6-carbonyl)-2-[3-methoxy-4-(1H-pyrazol-4-yl)phenyl]-2,8-diazaspiro[4.5]decan-1-one] | 7.48
COc1cc(N2CCC3(CCN(C(=O)c4ccc5c(c4)OCO5)CC3)C2=O)ccc1-c1cn[nH]c1 [Example 69, 8-(2H-1,3-benzodioxole-5-carbonyl)-2-[3-methoxy-4-(1H-pyrazol-4-yl)phenyl]-2,8-diazaspiro[4.5]decan-1-one] | 7.03
COc1cccc(C(=O)N2CCC3(CCN(c4ccc(-c5cn[nH]c5)cc4)C3=O)C2)c1 (stereo not drawn) [Example 44, 7-(3-methoxybenzoyl)-2-[4-(1H-pyrazol-4-yl)phenyl]-2,7-diazaspiro[4.4]nonan-1-one] | 6.35
COc1ccccc1C(=O)N1CCC2(CC1)CCN(c1ccc(-c3cn[nH]c3)cc1)C2=O [Example 3, 8-(2-methoxybenzoyl)-2-[4-(1H-pyrazol-4-yl)phenyl]-2,8-diazaspiro[4.5]decan-1-one] | 6.80
COc1cc(N2CCC3(CCN(C(=O)c4ccc(F)c(C)c4)CC3)C2=O)ccc1-c1cn[nH]c1 [Example 103, 8-(4-fluoro-3-methylbenzoyl)-2-[3-methoxy-4-(1H-pyrazol-4-yl)phenyl]-2,8-diazaspiro[4.5]decan-1-one] | 7.02
COc1cc(N2CCC3(CCN(C(=O)c4cc(C(C)C)n[nH]4)CC3)C2=O)ccc1-c1cn[nH]c1 [Example 110, 2-[3-methoxy-4-(1H-pyrazol-4-yl)phenyl]-8-[3-(propan-2-yl)-1H-pyrazole-5-carbonyl]-2,8-diazaspiro[4.5]decan-1-one] | 7.47
